Reference: US20250302795A1, “SMALL MOLECULE COMPOUNDS WITH NEGATIVE REGULATORY EFFECTS ON Nrf2 SIGNALING [sequence] AND THEIR POTENTIAL APPLICATIONS” (Beijing Hebabiz Biotechnology Co., Inc., priority 2022, published 2025)

Assays:
Type in all cases: in vivo, rat
[1] = tested on: rats with nonalcoholic steatohepatitis induced by a high-fat diet and CCl4; assay: Serum biochemical indices, high-fat diet and CCl4 model; conditions: end of tenth week of administration, positive control group; for HOMA-IR: FPG x FINS/22.5
Method: (§1) Starting from the seventh week, they received subcutaneous injections of a 30% CCl4 olive oil solution at a dosage of 0.2 ml/100 g behind their back twice per week for a total of four times. Once the model was successfully replicated, the corresponding drugs were administered orally (10 ml/kg) in each treatment group, and both the normal control group and the model group received equal volumes of a 0.5% CMC-Na solution once daily for ten consecutive weeks. Throughout the experimental period, the rats were provided with ad libitum access to food and water, while the animal chamber was maintained under controlled conditions of quietness, natural lighting, a temperature of 25±0.5° C., and a humidity level of 55±5%. The rats' body weights were measured once per week and recorded.
(§2) At the end of the tenth week of administration, all rats underwent a 16-hour fasting period following their final administration and were intraperitoneally injected with a 20% ulinastatin solution (10 ml/kg) for anesthesia. Subsequently, blood samples were collected from the abdominal aorta and allowed to stand for one hour, and then centrifuged at 4° C. for fifteen minutes at a speed of 3000 r/min. Finally, the upper serum was stored at −80° C. Following the instructions provided with the biochemical index detection kit, levels of HDL-C, LDL-C, NEFA, AST, ALT, UA, TC, TG, PCIII, IV-C LN and HA in rat serum were determined.
According to the kit instructions, the concentration of fasting plasma glucose (FPG) in serum was determined using colorimetry, while the concentration of fasting insulin (FINS) in serum was measured through radioimmunoassay.

[2] = Body weight of rats, high-fat diet + CCl4 non-alcoholic steatohepatitis model; conditions: positive control group, in g (unit assumed)
Method: as §1, with “The normal control group were fed a standard diet while the other groups were exclusively fed a high-fat diet consisting of 88% basal diet +10% lard +2% cholesterol for the initial six weeks. Starting” for “Starting”
The weight changes of rats in each group were compared by conducting weekly weigh-ins after the experiment.

[3] = tested on: rats with nonalcoholic steatohepatitis induced by a high-fat diet and CCl4; assay: Liver histopathology (HE, oil red, Masson staining), high-fat diet and CCl4 model; conditions: positive control groups and NR218 high-, medium-, low-dose groups
Method: as §1, with “The normal control group were fed a standard diet while the other groups were exclusively fed a high-fat diet consisting of 88% basal diet +10% lard +2% cholesterol for the initial six weeks. Starting” for “Starting”
After collecting blood samples from the abdominal aorta of rats, the liver tissue was isolated and fixed in a 10% neutral formalin solution. Following standard procedures for embedding, sectioning, dewaxing, staining, clearing, and sealing, the liver tissues were subjected to HE (hematoxylin-eosin), Masson's trichrome, and oil red staining techniques respectively. […]

[4] = tested on: rats with nonalcoholic steatohepatitis induced by a high-fat diet and CCl4; assay: Liver indices, non-alcoholic steatohepatitis model induced by high-fat diet and CCl4; conditions: positive control group
Method: as §1, with “The normal control group were fed a standard diet while the other groups were exclusively fed a high-fat diet consisting of 88% basal diet +10% lard +2% cholesterol for the initial six weeks. Starting” for “Starting”
After blood sampling from the abdominal aorta of rats, the liver tissue was isolated, rinsed with normal saline solution, dried using filter paper, weighed accurately, and subsequently calculated the Liver indices: Liver indices=wet liver weight/body weight×100%.

[5] = tested on: rats with nonalcoholic steatohepatitis induced by a high-fat diet and CCl4; assay: Four indices of serum hepatic fibrosis, high-fat diet and CCl4 model; conditions: positive control group
Method: as §1, §2

[6] = Body weight of rats, high-fat diet non-alcoholic steatohepatitis model; conditions: positive control group, in g (unit assumed)
Method: (§3) The normal control group was fed a standard diet for twelve weeks while the other groups were fed a high-fat diet consisting of 88% basal diet+10% lard+2% cholesterol for twelve weeks. After establishing the model, the drug groups received their respective treatments at a dosage of 10 ml/kg while the normal and model groups received an equal volume of 0.5% CMC-Na solution. The rats were provided with ad libitum access to water and food, while the animal chamber was maintained under controlled conditions of quietness, natural lighting, a temperature of 25±0.5° C., and a humidity level of 55±5%. The rats' body weights were measured once per week and recorded.
The rats were weighed weekly to monitor the fluctuations in body weight within each experimental group.

[7] = tested on: rats with non-alcoholic steatohepatitis induced by high-fat diet; assay: Liver indices, non-alcoholic steatohepatitis model induced by high-fat diet; conditions: for Liver Indices: high-fat diet model, positive control group
Method: as §3
(3) Liver indices was determined by dividing the wet weight of the liver by the body weight of rats and multiplying by 100%, after liver tissue was isolated, washed with normal saline, dried using filter paper, and weighed following blood sampling from the abdominal aorta. (4) HE staining and oil red staining were performed on liver tissue samples obtained from the abdominal aorta of rats. The tissue was fixed in 10% neutral formalin, followed by embedding, slicing, dewaxing, staining, transparency treatment, and sealing using routine procedures. Microscopic examination was conducted to observe the pathological changes in rat liver tissues across different groups. Additionally, the NASH-CRN scoring system was employed to assess NAS scores. (5) Detection of Proteins Associated with Non-Alcoholic Steatohepatitis

## CC[C@H](C)C(=O)O[C@H]1C[C@@H](C)C=C2C=C[C@H](C)[C@H](CC[C@@H]3C[C@@H](O)CC(=O)O3)[C@H]21 [Lovastatin]
[1]
  HOMA-IR: 5.50
[1]; serum
  ALT: 43.66 U/L
  AST: 69.18 U/L
  HDL-C: 1.31 mmol/L
  LDL-C: 1.20 mmol/L
  NEFA: 0.76 mmol/L
[2]; week 1
  body weight: 195.70 ± 6.24
[2]; week 2
  body weight: 253.01 ± 9.37
[2]; week 3
  body weight: 315.37 ± 15.71
[2]; week 4
  body weight: 368.78 ± 19.25
[2]; week 5
  body weight: 409.85 ± 24.64
[2]; week 6
  body weight: 439.81 ± 28.73
[2]; week 7
  body weight: 470.75 ± 34.51
[2]; week 8
  body weight: 491.21 ± 35.35
[2]; week 9
  body weight: 491.46 ± 34.37
[2]; week 10
  body weight: 503.05 ± 37.51
[2]; week 11
  body weight: 486.62 ± 44.00
[2]; week 12
  body weight: 506.22 ± 46.50
[2]; week 13
  body weight: 530.00 ± 54.43
[2]; week 14
  body weight: 531.16 ± 48.26
[2]; week 15
  body weight: 525.60 ± 53.49
[2]; week 16
  body weight: 539.63 ± 46.78
[2]; week 17
  body weight: 555.78 ± 49.24
[2]; week 18
  body weight: 561.12 ± 51.49
[3]
  Oil red O staining of liver tissue (in words): significantly ameliorated steatosis severity and reduced lipid droplet content
[4]
  Liver Indices: 3.56 ± 0.49%
[5]
  IV-C: 15.59 ± 7.47 µg/L
  PC-III: 10.52 ± 2.34 µg/L
[6]; week 0 (pre-administration)
  body weight: 196.21 ± 4.57
[6]; week 1 (pre-administration)
  body weight: 258.64 ± 9.56
[6]; week 2 (pre-administration)
  body weight: 315.91 ± 19.58
[6]; week 3 (pre-administration)
  body weight: 356.16 ± 26.94
[6]; week 4 (pre-administration)
  body weight: 392.60 ± 32.93
[6]; week 5 (pre-administration)
  body weight: 432.81 ± 38.14
[6]; week 6 (pre-administration)
  body weight: 464.35 ± 45.01
[6]; week 7 (pre-administration)
  body weight: 482.88 ± 44.36
[6]; week 8 (pre-administration)
  body weight: 503.37 ± 45.95
[6]; week 9 (pre-administration)
  body weight: 530.26 ± 48.68
[6]; week 10 (pre-administration)
  body weight: 548.47 ± 45.65
[6]; week 11 (pre-administration)
  body weight: 547.23 ± 54.49
[6]; week 12 (pre-administration)
  body weight: 543.06 ± 66.86
[6]; week 13
  body weight: 534.63 ± 62.63
[6]; week 14
  body weight: 542.19 ± 52.03
[6]; week 15
  body weight: 543.36 ± 47.44
[6]; week 16
  body weight: 547.25 ± 37.26
[6]; week 17
  body weight: 561.64 ± 53.62
[6]; week 18
  body weight: 593.39 ± 48.55
[6]; week 19
  body weight: 615.74 ± 52.23
[6]; week 20
  body weight: 600.22 ± 50.84
[7]; NR218 at high, medium and low doses, P<0.01 or P<0.05
  liver indices versus model group (in words): significant decrease compared to the model group
[7]
  Liver Indices: 3.23 ± 0.56 %

## CC[C@H]1[C@@H](O)[C@@H]2[C@H](CC[C@]3(C)[C@@H]([C@H](C)CCC(=O)O)CC[C@@H]23)[C@@]2(C)CC[C@@H](O)C[C@@H]12 [Ocaliva, Obercholic acid]
[1]
  HOMA-IR: 4.90
[1]; serum
  ALT: 54.91 U/L
  AST: 62.32 U/L
  HDL-C: 1.30 mmol/L
  LDL-C: 1.29 mmol/L
  NEFA: 0.69 mmol/L
  TC: 1.76 mmol/L
  TG: 0.50 mmol/L
  UA: 106 µmol/L
[2]; week 1
  body weight: 192.12 ± 5.16
[2]; week 2
  body weight: 251.85 ± 11.78
[2]; week 3
  body weight: 316.12 ± 16.31
[2]; week 4
  body weight: 359.50 ± 15.40
[2]; week 5
  body weight: 389.95 ± 30.78
[2]; week 6
  body weight: 432.14 ± 23.79
[2]; week 7
  body weight: 462.23 ± 28.00
[2]; week 8
  body weight: 487.97 ± 30.51
[2]; week 9
  body weight: 487.63 ± 39.07
[2]; week 10
  body weight: 505.41 ± 41.23
[2]; week 11
  body weight: 493.66 ± 55.42
[2]; week 12
  body weight: 509.99 ± 49.38
[2]; week 13
  body weight: 532.39 ± 48.08
[2]; week 14
  body weight: 532.75 ± 52.06
[2]; week 15
  body weight: 498.86 ± 46.37
[2]; week 16
  body weight: 493.95 ± 43.25
[2]; week 17
  body weight: 515.43 ± 41.21
[2]; week 18
  body weight: 525.15 ± 42.35
[4]
  Liver Indices: 3.57 ± 0.31%
[5]
  HA: 50.19 ± 17.94 µg/L
  IV-C: 15.40 ± 7.08 µg/L
  LN: 118.43 ± 39.88 µg/L
  PC-III: 10.82 ± 1.64 µg/L
[6]; week 0 (pre-administration)
  body weight: 197.61 ± 4.50
[6]; week 1 (pre-administration)
  body weight: 257.27 ± 10.59
[6]; week 2 (pre-administration)
  body weight: 318.89 ± 11.61
[6]; week 3 (pre-administration)
  body weight: 362.58 ± 18.50
[6]; week 4 (pre-administration)
  body weight: 403.03 ± 23.75
[6]; week 5 (pre-administration)
  body weight: 439.43 ± 29.45
[6]; week 6 (pre-administration)
  body weight: 474.15 ± 35.23
[6]; week 7 (pre-administration)
  body weight: 492.08 ± 37.59
[6]; week 8 (pre-administration)
  body weight: 520.77 ± 41.63
[6]; week 9 (pre-administration)
  body weight: 548.10 ± 47.45
[6]; week 10 (pre-administration)
  body weight: 552.73 ± 51.34
[6]; week 11 (pre-administration)
  body weight: 552.52 ± 56.26
[6]; week 12 (pre-administration)
  body weight: 570.97 ± 53.36
[6]; week 13
  body weight: 552.25 ± 68.34
[6]; week 14
  body weight: 551.61 ± 63.47
[6]; week 15
  body weight: 559.94 ± 61.90
[6]; week 16
  body weight: 572.35 ± 60.86
[6]; week 17
  body weight: 573.51 ± 72.23
[6]; week 18
  body weight: 599.13 ± 55.71
[6]; week 19
  body weight: 615.97 ± 56.23
[6]; week 20
  body weight: 601.19 ± 60.01
[7]
  Liver Indices: 2.95 ± 0.68 %
